ChEMBL document CHEMBL3885861, “Open TG-GATES”

Organism: Rattus norvegicus
Test: Open TG-GATES - Regimen: Single
Format: toxicity, organism-based, Sprague-Dawley
Design: regimen Single, gender Male, age 6 weeks
Details: in vivo, po, 30 mg/kg, route gavage, dose level Low; for APTT / Bas / Eos / Fbg / Hb / Ht / Lym / MCH / MCHC / MCV / Mono / Neu / PT / Plat / RBC / Ret / WBC: tissue Blood; for KIDNEY_L / KIDNEY_R / KIDNEY_TOTAL: tissue Kidney; for LIVER: tissue Liver; for A/G / ALP / ALT / AST / BUN / CRE / Ca / Cl / DBIL / GLC / IP / K / LDH / Na / PL / RALB / TBIL / TC / TG / TP / gamma-GTP: tissue Plasma

NC(=O)N/N=C/c1ccc([N+](=O)[O-])o1 [NITROFURAZONE]
TERMINAL_BW (3 h): 181.5 g
APTT (3 h): 16.4 s
Bas (3 h): 0.2%
Eos (3 h): 0.8%
Fbg (3 h): 262.8 mg/dL
Hb (3 h): 13 g/dL
Ht (3 h): 40.6%
Lym (3 h): 68.6%
MCH (3 h): 21.7 pg
MCHC (3 h): 31.9%
MCV (3 h): 67.8 fL
Mono (3 h): 3.6%
Neu (3 h): 26%
PT (3 h): 14.8 s
Plat (3 h): 116.3 x10_4/uL
RBC (3 h): 598.8 x10_4/ul
Ret (3 h): 10.6%
WBC (3 h): 92.5 x10_2/uL
KIDNEY_L (3 h): 0.8 g
KIDNEY_R (3 h): 0.8 g
KIDNEY_TOTAL (3 h): 1.6 g
LIVER (3 h): 8.1 g
A/G (3 h): 0.9
ALP (3 h): 1547.4 IU/L
ALT (3 h): 43 IU/L
AST (3 h): 76.8 IU/L
BUN (3 h): 10.8 mg/dL
CRE (3 h): 0.2 mg/dL
Ca (3 h): 11.3 mg/dL
Cl (3 h): 106.4 meq/L
DBIL (3 h): 0.01 mg/dL
GLC (3 h): 175 mg/dL
IP (3 h): 9.7 mg/dL
K (3 h): 4 meq/L
LDH (3 h): 47.2 IU/L
Na (3 h): 142.8 meq/L
PL (3 h): 145.4 mg/dL
RALB (3 h): 2.4 g/dL
TBIL (3 h): 0.054 mg/dL
TC (3 h): 81 mg/dL
TG (3 h): 48 mg/dL
TP (3 h): 5.2 g/dL
gamma-GTP (3 h): 1.6 IU/L
TERMINAL_BW (6 h): 178.8 g
APTT (6 h): 16 s
Bas (6 h): 0%
Eos (6 h): 0.8%
Fbg (6 h): 253.2 mg/dL
Hb (6 h): 12.8 g/dL
Ht (6 h): 39.9%
Lym (6 h): 71%
MCH (6 h): 21.3 pg
MCHC (6 h): 32.1%
MCV (6 h): 66.5 fL
Mono (6 h): 2.8%
Neu (6 h): 24%
PT (6 h): 14.6 s
Plat (6 h): 116.1 x10_4/uL
RBC (6 h): 599.8 x10_4/ul
Ret (6 h): 10.6%
WBC (6 h): 83.2 x10_2/uL
KIDNEY_L (6 h): 0.8 g
KIDNEY_R (6 h): 0.8 g
KIDNEY_TOTAL (6 h): 1.6 g
LIVER (6 h): 7.6 g
A/G (6 h): 0.9
ALP (6 h): 1430.2 IU/L
ALT (6 h): 43.6 IU/L
AST (6 h): 76.8 IU/L
BUN (6 h): 7.8 mg/dL
CRE (6 h): 0.2 mg/dL
Ca (6 h): 11 mg/dL
Cl (6 h): 105 meq/L
DBIL (6 h): 0.01 mg/dL
GLC (6 h): 167.4 mg/dL
IP (6 h): 10.3 mg/dL
K (6 h): 4 meq/L
LDH (6 h): 52.6 IU/L
Na (6 h): 141 meq/L
PL (6 h): 139 mg/dL
RALB (6 h): 2.4 g/dL
TBIL (6 h): 0.062 mg/dL
TC (6 h): 83.6 mg/dL
TG (6 h): 33.2 mg/dL
TP (6 h): 5.1 g/dL
gamma-GTP (6 h): 1.6 IU/L
TERMINAL_BW (9 h): 179 g
APTT (9 h): 16 s
Bas (9 h): 0%
Eos (9 h): 1%
Fbg (9 h): 264.6 mg/dL
Hb (9 h): 12.7 g/dL
Ht (9 h): 39.3%
Lym (9 h): 76.6%
MCH (9 h): 21.1 pg
MCHC (9 h): 32.4%
MCV (9 h): 65.3 fL
Mono (9 h): 2.8%
Neu (9 h): 19%
PT (9 h): 14.9 s
Plat (9 h): 105.2 x10_4/uL
RBC (9 h): 601.4 x10_4/ul
Ret (9 h): 10.5%
WBC (9 h): 60.9 x10_2/uL
KIDNEY_L (9 h): 0.8 g
KIDNEY_R (9 h): 0.8 g
KIDNEY_TOTAL (9 h): 1.7 g
LIVER (9 h): 7.2 g
A/G (9 h): 0.9
ALP (9 h): 1367.6 IU/L
ALT (9 h): 42.8 IU/L
AST (9 h): 76 IU/L
BUN (9 h): 7.4 mg/dL
CRE (9 h): 0.1 mg/dL
Ca (9 h): 10.8 mg/dL
Cl (9 h): 105.6 meq/L
DBIL (9 h): 0.016 mg/dL
GLC (9 h): 163.6 mg/dL
IP (9 h): 10.3 mg/dL
K (9 h): 3.7 meq/L
LDH (9 h): 48.8 IU/L
Na (9 h): 141.4 meq/L
PL (9 h): 133.2 mg/dL
RALB (9 h): 2.4 g/dL
TBIL (9 h): 0.064 mg/dL
TC (9 h): 72.4 mg/dL
TG (9 h): 40.4 mg/dL
TP (9 h): 5.2 g/dL
gamma-GTP (9 h): 1.2 IU/L
TERMINAL_BW (24 h): 197.2 g
APTT (24 h): 15.8 s
Bas (24 h): 0.2%
Eos (24 h): 0.8%
Fbg (24 h): 260 mg/dL
Hb (24 h): 12.3 g/dL
Ht (24 h): 38%
Lym (24 h): 79%
MCH (24 h): 21.5 pg
MCHC (24 h): 32.3%
MCV (24 h): 66.5 fL
Mono (24 h): 3.6%
Neu (24 h): 16%
PT (24 h): 14.8 s
Plat (24 h): 112 x10_4/uL
RBC (24 h): 571.2 x10_4/ul
Ret (24 h): 10.6%
WBC (24 h): 87.3 x10_2/uL
KIDNEY_L (24 h): 0.9 g
KIDNEY_R (24 h): 0.9 g
KIDNEY_TOTAL (24 h): 1.8 g
LIVER (24 h): 9.3 g
A/G (24 h): 0.9
ALP (24 h): 1764.6 IU/L
ALT (24 h): 50.2 IU/L
AST (24 h): 75.2 IU/L
BUN (24 h): 14.6 mg/dL
CRE (24 h): 0.2 mg/dL
Ca (24 h): 11.4 mg/dL
Cl (24 h): 104.6 meq/L
DBIL (24 h): 0.014 mg/dL
GLC (24 h): 179.2 mg/dL
IP (24 h): 9.1 mg/dL
K (24 h): 4 meq/L
LDH (24 h): 64.2 IU/L
Na (24 h): 142 meq/L
PL (24 h): 145.6 mg/dL
RALB (24 h): 2.5 g/dL
TBIL (24 h): 0.048 mg/dL
TC (24 h): 80.2 mg/dL
TG (24 h): 62.6 mg/dL
TP (24 h): 5.4 g/dL
gamma-GTP (24 h): 1 IU/L
